Literature values in publication PMC12655172, “Borylated 5-Membered Ring Iminosugars: Synthesis and Biological Evaluation for Glycosidase Inhibition and Anticancer Properties for Application in Boron Neutron Capture Therapy (BNCT)—Part 2” (Pharmaceuticals, 2025).

Tests used:
[1] = tested on: β-D-galactosidase (E. coli); conditions: cited from earlier work
[2] = tested on: α-D-galactosidase (coffee bean); conditions: cited from earlier work
[3] = tested on: T1, α-D-mannosidase (Jack bean); conditions: cited from earlier work
T1 construct: purchased Sigma-Aldrich; host or cells: Jack bean

[4] = target: α-glucosidase (endoplasmatic reticulum I); set-up: method as in PMID 19294724; conditions: cited from earlier work
[5] = target: α-glucosidase (endoplasmatic reticulum II); set-up: method as in PMID 19294724; conditions: cited from earlier work
β-glucosidase (almond) = target: β-glucosidase (almond); set-up: method as in PMID 33228403; conditions: cited from earlier work
amyloglucosidase = conditions: read-out: IC50 amyloglucosidase; cited from earlier work
α-L-fucosidase = tested on: α-L-fucosidase; set-up: method as in PMID 2706004; conditions: cited from earlier work
α-D-glucosidase = target: α-D-glucosidase; set-up: method as in PMID 31557624; conditions: cited from earlier work
β-D-glucosidase (almond) [6] = tested on: β-D-glucosidase (almond); set-up: method as in PMID 41011173; conditions: cited from earlier work
[7] = target: T2, β-D-glucosidase (bovine liver) (Bos taurus, UniProt F1MNT6); set-up: method as in PMID 41011173; conditions: cited from earlier work
T2 sequence (F1MNT6 1-469): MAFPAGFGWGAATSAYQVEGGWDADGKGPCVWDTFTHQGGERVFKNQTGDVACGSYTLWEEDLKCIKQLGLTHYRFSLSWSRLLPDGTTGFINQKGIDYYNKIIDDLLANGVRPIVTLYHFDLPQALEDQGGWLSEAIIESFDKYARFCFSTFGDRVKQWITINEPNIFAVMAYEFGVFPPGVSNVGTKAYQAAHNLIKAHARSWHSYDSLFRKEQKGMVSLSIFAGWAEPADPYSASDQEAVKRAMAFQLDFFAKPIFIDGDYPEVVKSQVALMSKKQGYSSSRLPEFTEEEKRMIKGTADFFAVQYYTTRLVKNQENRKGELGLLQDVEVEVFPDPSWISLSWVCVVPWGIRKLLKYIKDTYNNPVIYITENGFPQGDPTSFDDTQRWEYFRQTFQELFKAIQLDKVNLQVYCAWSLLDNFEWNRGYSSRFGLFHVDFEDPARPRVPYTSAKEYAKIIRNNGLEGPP

β-D-glucosidase (almond) [8] = tested on: β-D-glucosidase (almond); set-up: method as in PMID 41011173; conditions: Table 3 type assay; cited from earlier work
[9] = tested on: α-D-mannosidase (lysosomal acidic); set-up: method as in PMID 8457203; conditions: cited from earlier work
[10] = tested on: α-D-mannosidase (neutral); set-up: method as in PMID 8457203; conditions: cited from earlier work
[11] = tested on: α-D-mannosidase (Golgi II); set-up: method as in PMID 8457203; conditions: cited from earlier work
[12] = target: α-D-mannosidase (fruit fly lysosomal acidic); set-up: method as in PMID 29323461; conditions: cited from earlier work
[13] = target: α-D-mannosidase (fruit fly Golgi II); set-up: method as in PMID 29323461; conditions: cited from earlier work

Cl.OC[C@@H](O)[C@H]1[C@H](O)[C@H](O)CN1Cc1ccccc1 [N-Benzyl-1,4-dideoxy-1,4-imino-D-talitol.HCl]
inhibition β-D-galactosidase (E. coli) [1]: poorly inhibited
inhibition α-D-galactosidase (coffee bean) [2]: poorly inhibited
inhibition α-D-mannosidase (Jack bean) [3]: poorly inhibited

CCCCN1C[C@H](O)[C@@H](O)[C@H](O)[C@H]1CO [N-Butyl-DNJ]
IC50 [4]: 0.68 µM
IC50 [5]: 10.8 µM

Cl.OC[C@@H](O)[C@H]1[C@H](O)[C@H](O)CN1Cc1ccccc1B(O)O [N-(2-Methylphenylboronic acid)-1,4-dideoxy-1,4-imino-D-talitol.HCl]
inhibition β-D-galactosidase (E. coli) [1]: β-D-Galactosidase (E. coli) (44–55%)
inhibition α-D-galactosidase (coffee bean) [2]: < 5%
inhibition α-D-mannosidase (Jack bean) [3]: 10%

OC[C@H]1NC[C@H](O)[C@@H](O)[C@@H]1O [1-DNJ]
IC50 (amyloglucosidase): 2.1 µM

OC[C@@H](O)[C@@H]1[C@@H](O)[C@@H](O)CN1Cc1ccccc1 [N-Benzyl-1,4-dideoxy-1,4-imino-D-allitol]
inhibition α-L-fucosidase (α-L-fucosidase): α-L-Fucosidase (76%)

OC[C@@H](O)[C@H]1[C@H](O)[C@@H](O)CN1Cc1ccccc1 [N-benzyl-1,4-dideoxy-1,4-imino-D-galactitol]
IC50 (α-D-glucosidase): 40.6 µM
inhibition α-D-glucosidase (α-D-glucosidase): 93.2%

OB(O)c1ccc(CN2C[C@@H](O)[C@H]3OC(O)[C@H](O)[C@H]32)cc1 (stereo partly drawn) [para 7, N-(4-methylphenylboronic acid)-3,6-dideoxy-3,6-imino-D-gulofuranose]
inhibition % β-D-Glucosidase Almond (β-D-glucosidase (almond) [6]): 43.6%
inhibition % β-D-Glucosidase Bovine Liver [7]: 38.8%
Percentage inhibition β-D-Glucosidase Almond (β-D-glucosidase (almond) [8]): 68.1%

Cl.OC[C@@H](O)[C@@H]1[C@H](O)[C@H](O)CN1Cc1ccccc1 [N-benzyl-1,4-dideoxy-1,4-imino-D-mannitol.HCl]
inhibition α-D-mannosidase lysosomal acidic [9]: 34%
inhibition α-D-mannosidase neutral [10]: 44%
inhibition α-D-mannosidase Golgi II [11]: 72%
IC50 [12]: 1500 µM
IC50 [13]: 690 µM
